Assays:
Min6 cells = assay: Glucose Dependent Insulin Secretion (GDIS) assay, insulinoma cell line Min6; assay type: cell-based, mouse; settings: 1 μM plus 25 mM glucose compared to 25 mM glucose alone; 2 h
Experimental: Because activation of GPR40 is known to result in insulin secretion which is dependent on high glucose concentrations, two separate assay systems (insulinoma cell line and primary rodent islets) are developed to further characterize compounds that are known to increase intracellular calcium in the GPR40 primary assay discussed above.
GDIS assays are performed using the mouse insulinoma cell line Min6. Min6 cells are maintained in Dulbecco's Modified Eagle's Medium (DMEM) containing non-essential amino acids, 10% FBS, […] 2-mercaptoethanol and 1% penicillin and streptomycin at 37° C. plus 5% CO2. On the day of the experiment, the cells are washed twice with 200 μl of pre-warmed Krebs-ringer buffer without glucose. Addition of 200 μL of pre-warmed Krebs-ringer buffer containing 2.5 mM glucose is used to starve the cells followed by the addition of compounds in the presence of a high concentration of glucose (25 mM). The plate is incubated at 37° C. for 2 hours. At the end of the 2 h incubation, the supernatant is gently transferred into a Millipore filter plate and spun at 200 g (gravitational force) for 3 minutes. Insulin is assayed using a Mercodia Insulin estimation kit.

PPARγ = target: T1, PPARγ (Homo sapiens, UniProt P37231); assay: PPARγ reporter functional assay (CTF); assay type: cell-based; settings: examined up to 10 μM; CV1 cells; luciferase
T1 sequence (P37231 1-505): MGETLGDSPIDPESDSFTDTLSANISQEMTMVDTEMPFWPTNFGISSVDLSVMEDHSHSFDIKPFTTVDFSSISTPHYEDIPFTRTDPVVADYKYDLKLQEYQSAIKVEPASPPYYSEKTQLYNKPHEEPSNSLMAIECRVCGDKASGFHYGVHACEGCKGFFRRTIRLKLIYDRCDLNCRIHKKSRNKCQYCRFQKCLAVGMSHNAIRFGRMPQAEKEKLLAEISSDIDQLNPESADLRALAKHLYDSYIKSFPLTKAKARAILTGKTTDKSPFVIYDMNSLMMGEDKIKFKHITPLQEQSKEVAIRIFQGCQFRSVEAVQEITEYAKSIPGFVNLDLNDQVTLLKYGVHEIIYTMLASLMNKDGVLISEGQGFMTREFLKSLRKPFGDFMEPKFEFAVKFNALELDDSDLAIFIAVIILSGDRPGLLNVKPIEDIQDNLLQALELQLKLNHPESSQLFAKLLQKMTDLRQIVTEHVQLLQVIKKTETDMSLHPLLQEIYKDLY
T1 sequence (P19793 1-462 partner): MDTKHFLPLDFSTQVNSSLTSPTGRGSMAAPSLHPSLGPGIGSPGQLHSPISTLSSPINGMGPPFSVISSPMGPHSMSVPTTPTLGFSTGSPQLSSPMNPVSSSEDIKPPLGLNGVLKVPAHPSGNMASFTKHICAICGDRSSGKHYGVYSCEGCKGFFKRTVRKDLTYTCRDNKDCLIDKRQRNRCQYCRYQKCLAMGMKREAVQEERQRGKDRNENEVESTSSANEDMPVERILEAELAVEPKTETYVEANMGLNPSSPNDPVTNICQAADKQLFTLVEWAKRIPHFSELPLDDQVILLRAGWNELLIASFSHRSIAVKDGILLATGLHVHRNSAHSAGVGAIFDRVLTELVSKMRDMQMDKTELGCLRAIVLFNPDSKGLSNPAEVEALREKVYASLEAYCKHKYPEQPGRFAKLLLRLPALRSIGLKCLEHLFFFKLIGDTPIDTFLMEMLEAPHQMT
Source text: (§1) Gal4 PPARα, Gal4 PPARδ, and PPARγ reporter functional assays are also used to monitor the selectivity of exemplified compounds. CV1 cells, which are derived from the renal tissue of an African green monkey, are transfected with various receptor and reporter plasmids using Fugene. For the Gal4 PPARα and PPARδ assays, a reporter plasmid containing five tandem copies of the yeast transcription protein Gal4 response element, cloned upstream of a firefly luciferase gene driven by the major late promoter of adenovirus, is transfected together with a Simian Virus 40 (SV40) driven plasmid constitutively expressing a hybrid protein containing the Gal4 DNA binding domain (DBD), and either the PPARα or PPARδ ligand binding. For the PPARγ assay, plasmids encoding PPARγ and RXRα, both driven by a cytomegalovirus (CMV) promoter are transfected together with a plasmid containing luciferase reporter cDNA driven by the TK promoter and a receptor response element (2×PPRE). Cells are transfected in T225 cm^2 cell culture flasks in DMEM media with 5% charcoal-stripped FBS. […] After 24 hours incubation with compounds, cells are lysed and luciferase activity is determined as a measure of receptor activation by luminescence. […] The maximum percent stimulation is determined versus maximum stimulation obtained with 10 μM of an appropriate PPAR agonist reference compound. […]

Gal4 PPARδ = target: T2, Gal4 PPARδ (Homo sapiens, UniProt Q03181); assay: Gal4 PPARδ reporter functional assay (CTF); assay type: cell-based; settings: examined up to 10 μM; CV1 cells; luciferase
T2 construct: expressed in transfected cells; host or cells: CV1 (African green monkey kidney)
T2 sequence (Q03181 211-439 limits assumed): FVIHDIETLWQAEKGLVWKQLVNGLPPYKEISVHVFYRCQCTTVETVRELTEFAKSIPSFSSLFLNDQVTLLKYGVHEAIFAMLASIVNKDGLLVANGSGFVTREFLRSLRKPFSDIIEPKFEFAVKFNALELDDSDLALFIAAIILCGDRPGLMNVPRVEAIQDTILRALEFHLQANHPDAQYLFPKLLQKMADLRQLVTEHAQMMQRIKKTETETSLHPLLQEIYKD
Source text: as §1

functional activation (PPARγ): No functional activation
functional activation (Gal4 PPARδ): No functional activation
SMILES: CC#C[C@@H](CC(=O)O)c1ccc(OCc2ccc(CN3CCC4(C=Cc5ccccc54)CC3)cc2)cc1 [Example 1, (3S)-3-(4-{[4-(1′H-Spiro[indene-1,4′-piperidin]-1′-ylmethyl)benzyl]oxy}phenyl)hex-4-ynoic acid]
increase in insulin secretion (Min6 cells): two-fold increase

From patent US8383642B2, “Spiropiperidine compounds” (Eli Lilly and Company, priority 2009, dated 2013)
